Article PMC12040169 (PLOS Biology, 2025)

experiment: in vitro; settings: human, hela cells, % viability

Point of comparison: `N#CCC(=O)Nc1ccc(C(=O)N2CCN(c3ccccc3)CC2)cc1` [CBK306060], viability at 28.5 h, 10 µM 91.9%. Against it:
- COc1ccc(CC(=O)NC(CCSC)c2nc3ccccc3[nH]2)cc1 (stereo not drawn) [CBK306050] — lower, 82.6%
- CC(c1nc(N)nc(N(C)C)n1)N(C)CCOc1ccccc1F (stereo not drawn) [CBK306053] — lower, 88.2%
- Cc1cccc(N2CCN(CC(=O)Nc3cc(Cl)ccc3C#N)CC2)c1 [CBK306055] — higher, 109%
- Cc1sc2ncn(CC(=O)Nc3cccnc3)c(=O)c2c1C [CBK306057] — higher, 92.5%
- Cc1nc(C)c(CCC(=O)Nc2ccc(N3CCOCC3)cc2)c(=O)[nH]1 [CBK306059] — lower, 88.4%
- CCOCCn1c(CN2CCOCC2)nc2c1c(=O)n(C)c(=O)n2C [CBK306062] — higher, 105%
- CC1CCCN(Cc2nc3c(c(=O)n(C)c(=O)n3C)n2CC(N)=O)C1 (stereo not drawn) [CBK306064] — lower, 82.3%
- Cc1nn(C)c(C)c1CC(=O)N1CCc2c(sc3ncnc(N)c23)C1 [CBK306065] — lower, 86.9%
- Cc1sc2nc(C(C)N3CCN(Cc4ccco4)CC3)[nH]c(=O)c2c1C (stereo not drawn) [CBK306066] — higher, 93.7%
- CCCn1ccnc1SCC(=O)Nc1ccc(CN2CCOCC2)cc1 [CBK306068] — lower, 87.8%
- CCOC(=O)C1CCN(C(=O)Cn2cnc3ccc(Br)cc3c2=O)CC1 [CBK306070] — higher, 106%
- O=C(CSc1nccn1C1CC1)Nc1ccc(CN2CCOCC2)cc1 [CBK306071] — higher, 98.9%
- O=C(CSc1ccccn1)Nc1ccc(CN2CCOCC2)cc1 [CBK306072] — lower, 91%
- CC1CCCN(C(=O)CCc2nc3sc4c(c3c(=O)[nH]2)CCCC4)C1 (stereo not drawn) [CBK306073] — lower, 87.5%
- O=C(c1cc(S(=O)(=O)NCc2ccco2)c(Cl)cc1Cl)N1CCCC1 [CBK306076] — lower, 87.8%
- CCOC(=O)c1sc2nc(C(C)N3CCCCC3)[nH]c(=O)c2c1C (stereo not drawn) [CBK306078] — higher, 111%
- Cn1c(=O)n(CC(N)=O)c(=O)c2c1nc1oc(C(C)(C)C)cn12 [CBK306081] — higher, 96.5%
- Cc1ccc(CN(C)CC(=O)Nc2cc(C(F)(F)F)ccc2Cl)o1 [CBK306085] — lower, 90.4%
- CCN(CC(=O)NC(C)(C)C)S(=O)(=O)c1cccc(C#N)c1 [CBK306087] — higher, 114%
- Cc1ccnc2nc(C(=O)OC(C)C(=O)N3CCCC3)nn12 (stereo not drawn) [CBK306089] — lower, 88.9%
- CC(C)OC(=O)CCNC(=O)c1cccc(S(=O)(=O)N2CCCC2)c1 [CBK306090] — lower, 91.1%
- O=C(CN1CCN(CC(=O)NC2CC2)CC1)Nc1cc(Cl)ccc1Cl [CBK306091] — lower, 84.8%
- Cc1nnc(SCC(=O)Nc2ccc(CN3CCOCC3)cc2)n1C [CBK306092] — higher, 102%
- CS(=O)(=O)N1CCCc2cc(-c3csc(N4CCCC4)n3)ccc21 [CBK306093] — higher, 114%
- Cc1nn(C)c2ncc(S(=O)(=O)Nc3cc(C(N)=O)ccc3Cl)cc12 [CBK306104] — lower, 70%
- CCN1CCC(NCc2ccc(OCC(N)=O)cc2)CC1 [CBK306106] — lower, 85.9%
- CCc1nc2n(n1)CC(NCc1nc(C)ccc1O)CC2 (stereo not drawn) [CBK306107] — higher, 106%
- CC(C(=O)Nc1ccc(S(N)(=O)=O)cc1)N1CCCc2ccccc21 (stereo not drawn) [CBK306108] — higher, 116%
- C#CCNC(=O)N(C)C1CCN(c2ncnc3ccccc23)CC1 [CBK306109] — higher, 97.6%
- CCNC(=O)CN1CCN(c2ccc(C#N)cc2C(F)(F)F)CC1 [CBK306112] — lower, 85%
- O=c1c2cccnc2nc(SCCO)n1CC1CCCO1 (stereo not drawn) [CBK306113] — lower, 80.3%
- CC(=O)NCCC(=O)Nc1cc(C)ccc1C [CBK306115] — higher, 96.6%
- N#Cc1ccsc1NC(=O)CN1CCC(CNc2ccccn2)C1 (stereo not drawn) [CBK306117] — higher, 105%
- Cc1ccc(-c2nn(CCC#N)cc2C(=O)N2CCCCC2)cc1 [CBK306119] — lower, 89.6%
- CC(C)NC(=O)Nc1ccc(C(=O)N(CC#N)C2CC2)cc1 [CBK306120] — lower, 90.5%
- Cc1cccn2c(=O)cc(CN3CCC(CNc4ccccn4)C3)nc12 (stereo not drawn) [CBK306123] — higher, 103%
- COc1ccnc(N2CCN(C(=O)c3cnn(C)c3)CC2)n1 [CBK306125] — lower, 90.7%
- Cc1cc(NC(=O)CN2CCC(CNc3ncccc3C#N)C2)on1 (stereo not drawn) [CBK306127] — lower, 87.8%
- Cc1ccnc(NCC2CCN(CC(=O)NC3(C#N)CCCC3)C2)c1 (stereo not drawn) [CBK306128] — lower, 85.8%
- Cc1ccc(Cc2cnc(NC(=O)C3CCOCC3)s2)cc1F [CBK306130] — lower, 77.5%
- Cc1cc(NC(=O)CN(C)C(=O)c2cnc(Cl)c(Cl)c2)no1 [CBK306132] — higher, 101%
- O=S1(=O)CCC(c2nc(-c3ccc(Br)o3)no2)C1 (stereo not drawn) [CBK306134] — lower, 77.8%
- CC(=O)Nc1ccc(NCc2ncc(C(C)(C)C)o2)c(Cl)c1 [CBK306135] — higher, 98.6%
- Cc1cc(NC(=O)CN2CCC(CSc3ccccc3)C2)no1 (stereo not drawn) [CBK306136] — higher, 92.4%
